Experimental data from patent US20100075965A1, “PI3 KINASE INHIBITORS AND METHODS OF THEIR USE” (Novartis AG, priority 2006, published 2010).
Read-outs that look alike come from different tables or passages of the source.

Molecular target: PI3 K Alpha (Homo sapiens, UniProt P42336)
Test: PI3 kinase phosphorylation assays (homogenous solution phase, one step solid phase, ATP depletion/KinaseGlo)
Type: biochemical
Description: Compounds to be tested are dissolved in DMSO and directly distributed into 384-well flashplates at 1.25 μL per well. To start the reaction, 20 μL of 6 nM PI3 kinase are added into each well followed by 20 μL of 400 nM ATP containing a trace of radiolabeled ATP and 900 nM 1-alpha-phosphatidylinositol (PI). The plates are briefly centrifuged to remove any air gap. The reaction is performed for 15 minutes and then stopped by the addition of 20 μL of 100 mM EDTA. The stopped reaction is incubated overnight at RT to allow the lipid substrate to bind by hydrophobic interaction to the surface of the flashplate. The liquid in the wells is then washed away, and the labeled substrate is detected with scintillation counting.
This method is similar to Assay 1 except that the lipid substrate (1-alpha-phosphatidylinositol (PI)) is first dissolved in a coating buffer and incubated on flashplate at room temperature overnight to allow the lipid substrate to bind by hydrophobic interaction to the surface of the flashplate. Unbound substrate is then washed away. On the day of assay, 20 μL of 6 nM PI3 kinase are added into each well followed by 20 μL of 400 nM ATP containing trace of radiolabeled ATP. Compounds are added together with enzyme and ATP to the lipid-coated plates. The plates are briefly centrifuged to remove any air gap. The reaction is performed for two to three hours. The reaction is stopped by addition of 20 μL of 100 mM EDTA or by immediate plate washing. Phosphorylated lipid substrate is detected by scintillation counting.
Compounds to be tested are dissolved in DMSO and directly distributed into a black 384-well plate at 1.25 μL per well. To start the reaction, 25 μL of 10 nM PI3 kinase and 5 μg/mL 1-alpha-phosphatidylinositol (PI) are added into each well followed by 25 μL of 2 μM ATP. The reaction is performed until approx 50% of the ATP is depleted, and then stopped by the addition of 25 μL of KinaseGlo solution. The stopped reaction is incubated for 5 minutes and the remaining ATP is then detected via luminescence.

[1] = ATP depletion assay, read-out: PI3 K Alpha IC50

Chain of PI3 K Alpha (P42336 whole entry): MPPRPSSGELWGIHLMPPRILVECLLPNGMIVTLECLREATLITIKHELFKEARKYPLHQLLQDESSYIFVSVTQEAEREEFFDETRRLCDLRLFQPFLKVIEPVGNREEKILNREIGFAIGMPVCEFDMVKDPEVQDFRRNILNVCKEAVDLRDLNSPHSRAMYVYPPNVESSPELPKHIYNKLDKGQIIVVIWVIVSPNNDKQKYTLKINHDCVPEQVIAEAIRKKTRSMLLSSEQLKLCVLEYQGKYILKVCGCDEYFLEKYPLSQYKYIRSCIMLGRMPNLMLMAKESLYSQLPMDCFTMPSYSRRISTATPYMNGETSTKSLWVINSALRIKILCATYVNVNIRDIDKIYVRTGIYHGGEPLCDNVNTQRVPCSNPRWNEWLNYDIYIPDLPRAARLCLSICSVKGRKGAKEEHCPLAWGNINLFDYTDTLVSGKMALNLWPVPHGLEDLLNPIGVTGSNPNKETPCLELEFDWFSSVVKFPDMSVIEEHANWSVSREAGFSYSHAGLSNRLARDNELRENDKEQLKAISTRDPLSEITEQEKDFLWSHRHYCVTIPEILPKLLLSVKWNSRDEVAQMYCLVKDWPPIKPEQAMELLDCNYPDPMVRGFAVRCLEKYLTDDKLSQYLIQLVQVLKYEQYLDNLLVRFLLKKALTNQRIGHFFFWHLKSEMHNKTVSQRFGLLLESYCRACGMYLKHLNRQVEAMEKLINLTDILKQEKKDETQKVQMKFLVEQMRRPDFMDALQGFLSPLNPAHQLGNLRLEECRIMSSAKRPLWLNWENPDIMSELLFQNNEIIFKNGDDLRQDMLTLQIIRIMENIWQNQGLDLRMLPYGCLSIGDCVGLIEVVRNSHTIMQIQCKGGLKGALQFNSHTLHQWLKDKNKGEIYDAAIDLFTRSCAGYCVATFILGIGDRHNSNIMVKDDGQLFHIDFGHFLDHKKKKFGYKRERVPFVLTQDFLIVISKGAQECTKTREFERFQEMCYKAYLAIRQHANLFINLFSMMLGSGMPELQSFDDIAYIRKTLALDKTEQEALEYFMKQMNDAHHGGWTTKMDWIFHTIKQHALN
Chain of PI3 K Alpha (P27986 whole entry partner): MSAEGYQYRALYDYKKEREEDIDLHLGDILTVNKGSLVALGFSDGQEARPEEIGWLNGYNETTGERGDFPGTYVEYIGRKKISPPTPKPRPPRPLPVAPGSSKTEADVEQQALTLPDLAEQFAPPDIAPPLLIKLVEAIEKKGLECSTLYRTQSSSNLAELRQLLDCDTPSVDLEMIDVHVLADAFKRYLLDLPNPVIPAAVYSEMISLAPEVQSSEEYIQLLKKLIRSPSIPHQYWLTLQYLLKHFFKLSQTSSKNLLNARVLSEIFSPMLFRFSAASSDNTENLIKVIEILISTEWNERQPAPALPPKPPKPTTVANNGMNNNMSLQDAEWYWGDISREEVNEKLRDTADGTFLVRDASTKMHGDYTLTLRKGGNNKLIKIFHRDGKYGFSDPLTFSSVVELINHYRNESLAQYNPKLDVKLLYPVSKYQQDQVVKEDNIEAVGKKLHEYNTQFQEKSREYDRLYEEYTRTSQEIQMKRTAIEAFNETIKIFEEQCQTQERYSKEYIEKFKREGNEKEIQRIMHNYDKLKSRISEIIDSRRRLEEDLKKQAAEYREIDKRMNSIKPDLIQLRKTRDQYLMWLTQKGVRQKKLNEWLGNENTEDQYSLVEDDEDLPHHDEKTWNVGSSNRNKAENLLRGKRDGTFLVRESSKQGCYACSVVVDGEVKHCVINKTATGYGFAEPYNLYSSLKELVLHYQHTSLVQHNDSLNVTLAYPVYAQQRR

Structure (SMILES) | IC50 [1] [µM] | IC50 (read-out: PI3K Alpha IC50) [µM]
CC(=O)Nc1nc2ccc(-c3ccc(NC4CCOCC4)nc3)cc2s1 [Example 2-17, N-{6-[6-(Tetrahydro-pyran-4-ylamino)-pyridin-3-yl]-benzothiazol-2-yl}-acetamide] | < 1 | –
CC(=O)Nc1nc2ccc(-c3ccc(NC4CCNCC4)nc3)cc2s1 [Example 2-19, N-{6-[6-(Piperidin-4-ylamino)-pyridin-3-yl]-benzothiazol-2-yl}-acetamide] | < 1 | –
Nc1ccc(-c2ccc3nc(NC(=O)OCCN4CCCCC4)sc3c2)cn1 [Example 2-20, [6-(6-Amino-pyridin-3-yl)-benzothiazol-2-yl]-carbamic acid 2-piperidin-1-yl-ethyl ester] | < 1 | –
CC(=O)Nc1nc2ccc(-c3cnc(NC(C)=O)c(C(F)(F)F)c3)cc2s1 [Example 2-22, N-[6-(6-Acetylamino-5-trifluoromethyl-pyridin-3-yl)-bezothiazol-2-yl]-acetamide] | < 1 | –
Nc1cccc(C(=O)Nc2nc3ccc(-c4cnc(N)c(C(F)(F)F)c4)cc3s2)n1 [Example 2-35, 6-amino-N-(6-(6-amino-5-(trifluoromethyl)pyridin-3-yl)benzo[d]thiazol-2-yl)picolinamide] | < 10 | –
Nc1cc(C(=O)Nc2nc3ccc(-c4cnc(N)c(C(F)(F)F)c4)cc3s2)ccn1 [Example 2-36, 2-amino-N-(6-(6-amino-5-(trifluoromethyl)pyridin-3-yl)benzo[d]thiazol-2-yl)isonicotinamide] | < 1 | –
CC(=O)Nc1nc2ccc(-c3ccc(N)nc3)cn2c1Br [Example 14, N-[6-(6-Amino-pyridin-3-yl)-3-bromo-imidazo[1,2-a]pyridin-2-yl]-acetamide] | – | < 10
CCN(CC)CCCc1c(NC(C)=O)nc2ccc(-c3cnc(N)c(C(F)(F)F)c3)cn12 [Example 17, N-[6-(6-Amino-5-trifluoromethyl-pyridin-3-yl)-3-(3-diethylamino-propyl)-imidazo[1,2-a]pyridin-2-yl]-acetamide] | – | < 10
CC(=O)Nc1nc2ccc(-c3cnc(N)c(C(F)(F)F)c3)cn2c1C(C)=O [Example 20, N-[3-Acetyl-6-(6-amino-5-trifluoromethyl-pyridin-3-yl)-imidazo[1,2-a]pyridin-2-yl]-acetamide] | – | < 10
CC(=O)Nc1cn2cc(-c3cnc(N)cc3C(F)(F)F)ccc2n1 [Example 22, N-[6-(6-Amino-4-trifluoromethyl-pyridin-3-yl)-imidazo[1,2-a]pyridin-2-yl]-acetamide] | – | < 10
CC(=O)Nc1cn2cc(-c3cnc(N)c(C(F)(F)F)c3)cc(C)c2n1 [Example 34, N-(6-(6-amino-5-(trifluoromethyl)pyridin-3-yl)-8-methylimidazo[1,2-a]pyridin-2-yl)acetamide] | – | > 25
CC(=O)Nc1cn2c(-c3cnc(N)c(C(F)(F)F)c3)c(-c3cnc(N)c(C(F)(F)F)c3)ccc2n1 [Example 35, N-(5,6-bis(6-amino-5-(trifluoromethyl)pyridin-3-yl)imidazo[1,2-a]pyridin-2-yl)acetamide] | – | > 25
CC(=O)N1CCCC[C@@H]1C(=O)Nc1cn2cc(-c3cnc(N)c(C(F)(F)F)c3)ccc2n1 [Example 47, (R)-1-acetyl-N-(6-(6-amino-5-(trifluoromethyl)pyridin-3-yl)imidazo[1,2-a]pyridin-2-yl)piperidine-2-carboxamide] | – | < 10
CC(=O)Nc1cn2cc(-c3cnc(N)nc3N)ccc2n1 [Example 48, N-(6-(2,4-diaminopyrimidin-5-yl)imidazo[1,2-a]pyridin-2-yl)acetamide] | – | < 10
Nc1ncc(-c2ccc3nc(NC(=O)N4CCC[C@H]4C(=O)O)cn3c2)cc1C(F)(F)F [Example 49, (S)-1-(6-(6-amino-5-(trifluoromethyl)pyridin-3-yl)imidazo[1,2-a]pyridin-2-ylcarbamoyl) pyrrolidine-2-carboxylic acid] | – | < 10
Nc1ncc(-c2ccc3nc(NC(=O)c4ccccc4C(=O)O)cn3c2)cc1C(F)(F)F [Example 50, 2-(6-(6-amino-5-(trifluoromethyl)pyridin-3-yl)imidazo[1,2-a]pyridin-2-ylcarbamoyl) benzoic acid] | – | < 10
Nc1ncc(-c2ccc3nc(NC(=O)c4cccc(-c5nn[nH]n5)c4)cn3c2)cc1C(F)(F)F [Example 269, N-(6-(6-amino-5-(trifluoromethyl)pyridin-3-yl)imidazo[1,2-a]pyridin-2-yl)-3-(2H-tetrazol-5-yl)benzamide] | – | < 1
Nc1ncc(-c2ccc3nc(NC(=O)C4CCC(=O)NC4)cn3c2)cc1C(F)(F)F (stereo not drawn) [Example 270, N-(6-(6-amino-5-(trifluoromethyl)pyridin-3-yl)imidazo[1,2-a]pyridin-2-yl)-6-oxopiperidine-3-carboxamide] | – | < 1
Nc1ncc(-c2ccc3nc(NC(=O)[C@@H](O)CCC(=O)O)cn3c2)cc1C(F)(F)F [Example 272, (S)-5-(6-(6-amino-5-(trifluoromethyl)pyridin-3-yl)imidazo[1,2-a]pyridin-2-ylamino)-4-hydroxy-5-oxopentanoic acid] | – | < 1
Nc1ncc(-c2ccc3nc(NC(=O)N4CCCC4Cc4ccccn4)cn3c2)cc1C(F)(F)F (stereo not drawn) [Example 273, N-(6-(6-amino-5-(trifluoromethyl)pyridin-3-yl)imidazo[1,2-a]pyridin-2-yl)-2-(pyridin-2-ylmethyl) pyrrolidine-1-carboxamide] | – | < 1
Nc1ncc(-c2ccc3nc(NC(=O)N4CCCC4c4ccco4)cn3c2)cc1C(F)(F)F (stereo not drawn) [Example 274, N-(6-(6-amino-5-(trifluoromethyl)pyridin-3-yl)imidazo[1,2-a]pyridin-2-yl)-2-(furan-2-yl)pyrrolidine-1-carboxamide] | – | < 1
Nc1ncc(-c2ccc3nc(NC(=O)N4CCCC4c4nccs4)cn3c2)cc1C(F)(F)F (stereo not drawn) [Example 275, N-(6-(6-amino-5-(trifluoromethyl)pyridin-3-yl)imidazo[1,2-a]pyridin-2-yl)-2-(thiazol-2-yl)pyrrolidine-1-carboxamide] | – | < 1

The remaining lines, values ahead:

IC50 [1] [µM] | IC50 (read-out: PI3K Alpha IC50) [µM] | Structure (SMILES)
– | < 1 | N#C/N=C(\N)NCCCC(=O)Nc1cn2nc(-c3cnc(N)c(C(F)(F)F)c3)ccc2n1 [Example 258, (E)-N-(6-(6-amino-5-(trifluoromethyl)pyridin-3-yl)imidazo[1,2-b]pyridazin-2-yl)-4-(2-cyanoguanidino) butanamide]
– | < 1 | CC(=O)Nc1cn2cc(-c3cnc(N)c(O[C@@H](C)C(F)(F)F)n3)cc(F)c2n1 [Example 259, (S)-N-(6-(5-amino-6-(1,1,1-trifluoropropan-2-yloxy)pyrazin-2-yl)-8-fluoroimidazo [1,2-a]pyridin-2-yl)acetamide]
– | < 1 | CC(=O)Nc1cn2nc(-c3cnc(N)c(-c4ccccc4Cl)c3)ccc2n1 [Example 260, N-(6-(6-amino-5-(2-chlorophenyl)pyridin-3-yl)imidazo[1,2-b]pyridazin-2-yl)acetamide]
– | < 1 | CC(=O)Nc1cn2cc(-c3cnc(N)c(Oc4cccc(F)c4)n3)cc(F)c2n1 [Example 261, N-(6-(5-amino-6-(3-fluorophenoxy)pyrazin-2-yl)-8-fluoroimidazo [1,2-a]pyridin-2-yl)acetamide]
– | < 1 | Nc1ncc(-c2ccc3nc(NC(=O)C4CCC(=O)N4)cn3c2)cc1C(F)(F)F (stereo not drawn) [Example 262, N-(6-(6-amino-5-(trifluoromethyl)pyridin-3-yl)imidazo[1,2-a]pyridin-2-yl)-5-oxopyrrolidine-2-carboxamide]
– | < 1 | CC(=O)Nc1cn2cc(-c3cnc(N)c(OC(F)F)c3)ccc2n1 [Example 263, N-(6-(6-amino-5-(difluoromethoxy)pyridin-3-yl)imidazo[1,2-a]pyridin-2-yl)acetamide]
– | < 1 | Nc1ncc(-c2ccc3nc(NC(=O)[C@H]4CCC(=O)O4)cn3c2)cc1C(F)(F)F [Example 264, (R)-N-(6-(6-amino-5-(trifluoromethyl)pyridin-3-yl)imidazo[1,2-a]pyridin-2-yl)-5-oxotetrahydro furan-2-carboxamide]
– | < 1 | CC(=O)Nc1cn2cc(-c3cnc(N)c(O[C@H](C)C(F)(F)F)n3)cc(F)c2n1 [Example 265, (R)-N-(6-(5-amino-6-(1,1,1-trifluoropropan-2-yloxy)pyrazin-2-yl)-8-fluoroimidazo [1,2-a]pyridin-2-yl)acetamide]
– | < 1 | Nc1ncc(-c2ccc3nc(NC(=O)C4CCCC(=O)N4)cn3c2)cc1C(F)(F)F (stereo not drawn) [Example 266, N-(6-(6-amino-5-(trifluoromethyl)pyridin-3-yl)imidazo[1,2-a]pyridin-2-yl)-6-oxo-piperidine-2-carboxamide]
– | < 1 | CC(=O)Nc1cn2cc(-c3cnc(N)c(S(=O)(=O)N4CCC(Oc5ccc(F)cc5)CC4)c3)ccc2n1 [Example 267, N-(6-(6-amino-5-(4-(4-fluorophenoxy)piperidin-1-ylsulfonyl)pyridin-3-yl)imidazo[1,2-a]pyridin-2-yl)acetamide]
– | < 1 | Nc1ncc(-c2ccc3nc(NC(=O)[C@@H]4CCC(=O)O4)cn3c2)cc1C(F)(F)F [Example 268]
